Laboratory results from ChEMBL document CHEMBL5390278, “PPARα/γ-Targeting Amorfrutin Phytocannabinoids from Aerial Parts of Glycyrrhiza foetida” (J Nat Prod, 2023).
Calls of active or inactive are those of the source. No cut-off for these calls is given here.

Legend:
[1] = molecular target: T1, Peroxisome proliferator-activated receptor alpha (Homo sapiens) (UniProt Q07869); experiment: Agonist activity at human PPAR alpha transfected in African green monkey COS-7 cells co-transfected with CMX-Gal4 fused hPPARalpha/TK-MH100x4-Luc/renilla luciferase assessed as fold increase in luciferase activity at 10 uM incubated for 24 hrs by Dual-Glo luciferase assay; assay type: cell-based; conditions: filed as agonist
T1 sequence (whole entry): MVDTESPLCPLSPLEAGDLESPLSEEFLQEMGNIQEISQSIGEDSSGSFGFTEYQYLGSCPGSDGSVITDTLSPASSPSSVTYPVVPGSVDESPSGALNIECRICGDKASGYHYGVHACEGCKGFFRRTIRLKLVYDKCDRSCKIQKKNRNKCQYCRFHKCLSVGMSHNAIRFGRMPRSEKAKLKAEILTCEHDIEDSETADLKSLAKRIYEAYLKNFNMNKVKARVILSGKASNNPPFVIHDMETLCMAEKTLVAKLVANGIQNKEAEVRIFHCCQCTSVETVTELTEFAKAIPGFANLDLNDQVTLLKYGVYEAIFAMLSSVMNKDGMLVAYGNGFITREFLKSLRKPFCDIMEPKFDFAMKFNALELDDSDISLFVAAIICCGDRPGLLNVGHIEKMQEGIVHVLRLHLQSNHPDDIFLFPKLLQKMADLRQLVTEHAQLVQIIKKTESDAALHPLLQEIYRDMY

[2] = molecular target: T2, Peroxisome proliferator-activated receptor gamma (Homo sapiens) (UniProt P37231); experiment: Agonist activity at human PPAR gamma transfected in African green monkey COS-7 cells co-transfected with CMX-Gal4 fused hPPARgamma/TK-MH100x4-Luc/renilla luciferase at 10 uM incubated for 24 hrs by Dual-Glo luciferase assay; assay type: cell-based; conditions: filed as agonist
T2 sequence (whole entry): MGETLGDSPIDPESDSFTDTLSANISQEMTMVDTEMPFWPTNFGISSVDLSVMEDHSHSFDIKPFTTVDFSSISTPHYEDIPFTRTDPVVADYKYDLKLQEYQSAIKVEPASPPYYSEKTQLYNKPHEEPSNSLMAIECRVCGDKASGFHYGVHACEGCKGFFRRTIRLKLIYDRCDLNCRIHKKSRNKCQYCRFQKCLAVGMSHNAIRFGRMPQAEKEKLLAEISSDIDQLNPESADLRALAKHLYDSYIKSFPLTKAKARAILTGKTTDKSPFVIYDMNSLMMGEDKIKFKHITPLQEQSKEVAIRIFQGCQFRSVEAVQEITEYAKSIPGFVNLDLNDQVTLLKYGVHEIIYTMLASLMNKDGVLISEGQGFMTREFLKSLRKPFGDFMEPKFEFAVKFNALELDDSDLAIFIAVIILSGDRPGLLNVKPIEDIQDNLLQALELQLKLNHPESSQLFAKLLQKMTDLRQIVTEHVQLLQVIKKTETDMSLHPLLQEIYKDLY

[3] = system: COS-7; experiment: Cytotoxicity against African green monkey COS-7 cells assessed as cell viability at 1 to 30 uM incubated for 24 hrs by MTT assay; assay type: toxicity, cell-based; conditions: chlorocebus aethiops, cos-7, 24 h, dose 1-30 µM
[4] = molecular target: T2, Peroxisome proliferator-activated receptor gamma (Homo sapiens); experiment: Agonist activity at human PPAR gamma transfected in African green monkey COS-7 cells co-transfected with CMX-Gal4 fused hPPARgamma/TK-MH100x4-Luc/renilla luciferase assessed as fold increase in luciferase activity at 10 uM incubated for 24 hrs by Dual-Glo luciferase assay; assay type: cell-based

| fold change (FC) [1] | SMILES | Activity [3] | also measured |
| --- | --- | --- | --- |
|  | COc1cc(CCc2ccccc2)c(C(=O)O)c2c1[C@H](OC)[C@@H](C(C)(C)O)O2 | Toxic |  |
|  | COc1cc(/C=C/c2ccccc2)cc(O)c1CC=C(C)C | Toxic |  |
| 5 | COc1cc(CCc2ccccc2)c(C(=O)O)c(O)c1CC=C(C)C |  | fold change (FC) [4]: > 20; Activity [2]: Active |
|  | COc1cc(/C=C/c2ccccc2)cc(OC)c1CC=C(C)C | Toxic |  |
| 5 | CCCCCc1cc(OC)c2c(c1C(=O)O)OC(C(C)(C)O)C2 (racemic) |  |  |
|  | COc1c(CC=C(C)C)c(O)c(C(=O)O)c(CCc2ccccc2)c1CC=C(C)C |  | Activity [2]: Active |
| 5 | C=C(C)C(O)Cc1c(OC)cc(CCc2ccccc2)c(C(=O)O)c1O (racemic) |  | Activity [2]: Active |
|  | CCCCCc1cc(OC)c(CC=C(C)C)c(O)c1C(=O)O | Toxic |  |
| 5 | COc1cc(CCc2ccccc2)c(C(=O)O)c2occc12 |  |  |
|  | CC(C)=CCc1c(O)cc(CCc2ccccc2)cc1O | Toxic |  |
|  | COc1cc(CCc2ccccc2)cc(OC)c1CC=C(C)C | Toxic |  |
| 5 | CCCCCc1cc(O)c(CC=C(C)C)c(O)c1CC=C(C)C |  |  |
|  | COc1cc(CCc2ccccc2)cc(O)c1CC=C(C)C | Toxic |  |
|  | CC(C)=CCc1c(O)cc(CCc2ccccc2)c(CC=C(C)C)c1O | Toxic |  |
|  | COc1cc(C#Cc2ccccc2)cc(OC)c1CC=C(C)C | Toxic |  |

| SMILES | fold change (FC) [1] | Activity [3] | also measured |
| --- | --- | --- | --- |
| C=C(C)C(Cc1c(OC)cc(CCc2ccccc2)c(C(=O)O)c1O)OO (racemic) | 5 |  | Activity [2]: Active |
| C=C(C)C(O)Cc1c(OC)cc(CCCCC)c(C(=O)O)c1O (racemic) | 5 |  | Activity [2]: Active |
